Data reported in the kinase profiling compilation of Christmann-Franck et al. (2016).

What was measured:
Test in all cases: radiometric filter-binding kinase assay, Kinase HotSpot
Conditions in all cases: compound 0.5 µM; ATP 10 µM
[1] = target: CDK2 CCNA2 (human) (UniProt P24941+P20248)
[2] = target: PKN1 (human) (UniProt Q16512)
[3] = target: HIPK3 (human) (UniProt Q9H422)
[4] = target: LCK (human) (UniProt P06239)
[5] = target: ALK (human) (UniProt Q9UM73)
[6] = target: PKN2 (human) (UniProt Q16513)
[7] = target: BRAF (human) (UniProt P15056)
[8] = target: AURKB (human) (UniProt Q96GD4)
[9] = target: CSNK1G3 (human) (UniProt Q9Y6M4)
[10] = target: EPHB1 (human) (UniProt P54762)
[11] = target: MUSK (human) (UniProt O15146)
[12] = target: CSNK2A2 (human) (UniProt P19784)
[13] = target: ABL1 (human) (UniProt P00519)
[14] = target: MAP3K7 TAB1 (human) (UniProt O43318+Q15750)
[15] = target: SLK (human) (UniProt Q9H2G2)
[16] = system: ARAF (human), P10398 [Y301D/Y302D]
[17] = target: CAMK1G (human) (UniProt Q96NX5)
[18] = target: MAPK8 (human) (UniProt P45983)
[19] = target: EPHA8 (human) (UniProt P29322)
[20] = target: CAMKK2 (human) (UniProt Q96RR4)
[21] = target: FLT1 (human) (UniProt P17948)
[22] = target: YES1 (human) (UniProt P07947)
[23] = target: MATK (human) (UniProt P42679)
[24] = target: JAK2 JH1 JH2 (human) (UniProt O60674)
[25] = target: GRK7 (human) (UniProt Q8WTQ7)
[26] = target: MAP3K8 (human) (UniProt P41279)
[27] = target: PDGFRB (human) (UniProt P09619)
[28] = target: MAP3K2 (human) (UniProt Q9Y2U5)
[29] = target: IRAK4 (human) (UniProt Q9NWZ3)
[30] = target: STK16 (human) (UniProt O75716)
[31] = target: DMPK (human) (UniProt Q09013)
[32] = target: MARK3 (human) (UniProt P27448)
[33] = target: MELK (human) (UniProt Q14680)
[34] = target: CSNK1D (human) (UniProt P48730)
[35] = target: EGFR (human) (UniProt P00533)

Chain of GRK7 (human) (Q8WTQ7 whole entry, looked up): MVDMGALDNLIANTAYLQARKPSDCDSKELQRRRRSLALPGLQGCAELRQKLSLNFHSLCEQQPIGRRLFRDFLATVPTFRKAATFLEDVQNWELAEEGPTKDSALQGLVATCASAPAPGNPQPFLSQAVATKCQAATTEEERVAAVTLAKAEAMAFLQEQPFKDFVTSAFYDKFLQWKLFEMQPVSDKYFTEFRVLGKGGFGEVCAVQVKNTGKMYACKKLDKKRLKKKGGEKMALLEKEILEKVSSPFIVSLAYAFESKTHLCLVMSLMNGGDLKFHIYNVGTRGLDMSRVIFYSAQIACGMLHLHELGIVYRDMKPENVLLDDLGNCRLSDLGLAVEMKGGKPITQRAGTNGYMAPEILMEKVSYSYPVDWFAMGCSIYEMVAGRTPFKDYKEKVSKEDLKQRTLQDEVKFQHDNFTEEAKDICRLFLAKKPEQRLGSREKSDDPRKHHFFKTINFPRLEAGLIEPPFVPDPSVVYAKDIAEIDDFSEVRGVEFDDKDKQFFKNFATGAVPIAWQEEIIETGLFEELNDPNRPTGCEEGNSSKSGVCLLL
Chain of CSNK1D (human) (P48730 whole entry, looked up): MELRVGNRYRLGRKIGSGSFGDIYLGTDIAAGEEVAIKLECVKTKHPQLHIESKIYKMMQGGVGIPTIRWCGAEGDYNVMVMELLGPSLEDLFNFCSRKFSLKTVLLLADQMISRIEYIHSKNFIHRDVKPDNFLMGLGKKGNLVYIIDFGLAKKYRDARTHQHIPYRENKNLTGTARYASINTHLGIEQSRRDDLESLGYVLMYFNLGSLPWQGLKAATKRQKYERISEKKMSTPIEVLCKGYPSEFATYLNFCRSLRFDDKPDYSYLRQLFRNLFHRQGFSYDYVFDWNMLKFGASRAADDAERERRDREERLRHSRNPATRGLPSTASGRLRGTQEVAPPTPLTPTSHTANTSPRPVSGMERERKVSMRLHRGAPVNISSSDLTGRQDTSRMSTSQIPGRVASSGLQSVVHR
Chain of IRAK4 (human) (Q9NWZ3 whole entry, looked up): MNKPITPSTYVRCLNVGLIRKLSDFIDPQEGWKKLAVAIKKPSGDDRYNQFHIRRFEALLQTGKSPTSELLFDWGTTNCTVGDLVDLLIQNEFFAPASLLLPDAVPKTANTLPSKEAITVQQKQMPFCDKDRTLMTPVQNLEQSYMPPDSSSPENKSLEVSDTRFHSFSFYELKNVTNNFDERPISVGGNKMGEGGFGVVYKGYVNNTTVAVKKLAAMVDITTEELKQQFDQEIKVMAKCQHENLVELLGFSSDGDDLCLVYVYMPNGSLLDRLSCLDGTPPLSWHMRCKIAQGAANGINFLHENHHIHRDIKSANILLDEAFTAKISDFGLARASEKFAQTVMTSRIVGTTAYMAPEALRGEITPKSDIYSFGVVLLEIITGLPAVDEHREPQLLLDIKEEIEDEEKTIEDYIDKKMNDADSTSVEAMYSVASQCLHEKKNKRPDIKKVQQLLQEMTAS
Chain of PKN2 (human) (Q16513 whole entry, looked up): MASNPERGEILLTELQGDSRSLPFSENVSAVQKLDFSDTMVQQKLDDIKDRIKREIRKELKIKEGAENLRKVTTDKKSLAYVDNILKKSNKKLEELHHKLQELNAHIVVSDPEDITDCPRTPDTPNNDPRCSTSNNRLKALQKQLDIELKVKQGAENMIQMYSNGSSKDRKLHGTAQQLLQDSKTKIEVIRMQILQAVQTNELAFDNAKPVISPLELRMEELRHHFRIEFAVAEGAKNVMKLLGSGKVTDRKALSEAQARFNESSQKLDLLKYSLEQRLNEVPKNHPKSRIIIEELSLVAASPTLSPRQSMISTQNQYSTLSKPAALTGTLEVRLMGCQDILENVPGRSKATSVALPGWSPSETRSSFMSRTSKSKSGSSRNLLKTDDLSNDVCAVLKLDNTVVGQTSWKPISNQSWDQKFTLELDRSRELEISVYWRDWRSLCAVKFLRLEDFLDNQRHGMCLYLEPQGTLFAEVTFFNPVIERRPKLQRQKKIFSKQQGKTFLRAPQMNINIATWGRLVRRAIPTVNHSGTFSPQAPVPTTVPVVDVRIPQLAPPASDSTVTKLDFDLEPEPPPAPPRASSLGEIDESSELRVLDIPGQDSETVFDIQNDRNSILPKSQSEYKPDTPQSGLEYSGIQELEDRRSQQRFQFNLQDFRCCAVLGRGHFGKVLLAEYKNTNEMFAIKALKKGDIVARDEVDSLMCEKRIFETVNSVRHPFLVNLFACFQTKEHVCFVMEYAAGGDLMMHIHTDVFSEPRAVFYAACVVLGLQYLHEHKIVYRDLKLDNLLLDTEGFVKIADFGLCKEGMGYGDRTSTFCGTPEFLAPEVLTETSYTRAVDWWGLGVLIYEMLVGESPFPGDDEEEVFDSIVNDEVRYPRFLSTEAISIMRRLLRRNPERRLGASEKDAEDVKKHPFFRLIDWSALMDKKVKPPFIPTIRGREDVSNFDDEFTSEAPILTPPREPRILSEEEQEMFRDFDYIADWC
Chain of MAP3K7 TAB1 (human) (O43318 whole entry, looked up): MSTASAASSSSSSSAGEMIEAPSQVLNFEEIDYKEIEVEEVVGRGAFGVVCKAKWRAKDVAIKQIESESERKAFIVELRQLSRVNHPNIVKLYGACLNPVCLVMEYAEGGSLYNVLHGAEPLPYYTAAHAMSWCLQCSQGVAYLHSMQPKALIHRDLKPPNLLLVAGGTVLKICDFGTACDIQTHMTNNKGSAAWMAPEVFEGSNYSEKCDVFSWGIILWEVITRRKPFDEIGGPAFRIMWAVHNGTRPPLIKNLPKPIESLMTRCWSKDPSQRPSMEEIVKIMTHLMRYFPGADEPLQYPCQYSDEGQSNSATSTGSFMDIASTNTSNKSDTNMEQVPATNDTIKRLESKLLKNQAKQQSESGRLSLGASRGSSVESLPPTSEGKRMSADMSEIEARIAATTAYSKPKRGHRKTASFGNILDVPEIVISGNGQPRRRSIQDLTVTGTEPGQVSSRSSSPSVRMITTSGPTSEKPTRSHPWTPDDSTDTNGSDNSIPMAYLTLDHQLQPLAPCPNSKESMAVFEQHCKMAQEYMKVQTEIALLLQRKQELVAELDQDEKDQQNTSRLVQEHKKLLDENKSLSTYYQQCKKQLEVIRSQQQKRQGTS
Chain of MAP3K7 TAB1 (human) (Q15750 whole entry, looked up): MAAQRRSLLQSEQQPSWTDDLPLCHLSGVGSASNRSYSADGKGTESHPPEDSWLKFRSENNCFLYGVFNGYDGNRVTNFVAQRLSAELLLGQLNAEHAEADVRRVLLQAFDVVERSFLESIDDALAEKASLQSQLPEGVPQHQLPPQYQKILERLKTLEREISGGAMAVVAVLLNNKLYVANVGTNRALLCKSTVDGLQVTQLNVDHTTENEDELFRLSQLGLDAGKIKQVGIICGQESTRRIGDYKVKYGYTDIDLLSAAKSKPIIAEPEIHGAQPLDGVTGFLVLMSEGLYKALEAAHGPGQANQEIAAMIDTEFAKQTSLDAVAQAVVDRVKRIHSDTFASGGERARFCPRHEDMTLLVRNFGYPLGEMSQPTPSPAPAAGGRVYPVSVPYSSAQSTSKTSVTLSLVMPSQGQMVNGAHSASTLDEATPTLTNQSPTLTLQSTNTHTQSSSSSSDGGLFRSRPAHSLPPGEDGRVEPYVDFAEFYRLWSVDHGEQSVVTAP
Chain of JAK2 JH1 JH2 (human) (O60674 whole entry, looked up): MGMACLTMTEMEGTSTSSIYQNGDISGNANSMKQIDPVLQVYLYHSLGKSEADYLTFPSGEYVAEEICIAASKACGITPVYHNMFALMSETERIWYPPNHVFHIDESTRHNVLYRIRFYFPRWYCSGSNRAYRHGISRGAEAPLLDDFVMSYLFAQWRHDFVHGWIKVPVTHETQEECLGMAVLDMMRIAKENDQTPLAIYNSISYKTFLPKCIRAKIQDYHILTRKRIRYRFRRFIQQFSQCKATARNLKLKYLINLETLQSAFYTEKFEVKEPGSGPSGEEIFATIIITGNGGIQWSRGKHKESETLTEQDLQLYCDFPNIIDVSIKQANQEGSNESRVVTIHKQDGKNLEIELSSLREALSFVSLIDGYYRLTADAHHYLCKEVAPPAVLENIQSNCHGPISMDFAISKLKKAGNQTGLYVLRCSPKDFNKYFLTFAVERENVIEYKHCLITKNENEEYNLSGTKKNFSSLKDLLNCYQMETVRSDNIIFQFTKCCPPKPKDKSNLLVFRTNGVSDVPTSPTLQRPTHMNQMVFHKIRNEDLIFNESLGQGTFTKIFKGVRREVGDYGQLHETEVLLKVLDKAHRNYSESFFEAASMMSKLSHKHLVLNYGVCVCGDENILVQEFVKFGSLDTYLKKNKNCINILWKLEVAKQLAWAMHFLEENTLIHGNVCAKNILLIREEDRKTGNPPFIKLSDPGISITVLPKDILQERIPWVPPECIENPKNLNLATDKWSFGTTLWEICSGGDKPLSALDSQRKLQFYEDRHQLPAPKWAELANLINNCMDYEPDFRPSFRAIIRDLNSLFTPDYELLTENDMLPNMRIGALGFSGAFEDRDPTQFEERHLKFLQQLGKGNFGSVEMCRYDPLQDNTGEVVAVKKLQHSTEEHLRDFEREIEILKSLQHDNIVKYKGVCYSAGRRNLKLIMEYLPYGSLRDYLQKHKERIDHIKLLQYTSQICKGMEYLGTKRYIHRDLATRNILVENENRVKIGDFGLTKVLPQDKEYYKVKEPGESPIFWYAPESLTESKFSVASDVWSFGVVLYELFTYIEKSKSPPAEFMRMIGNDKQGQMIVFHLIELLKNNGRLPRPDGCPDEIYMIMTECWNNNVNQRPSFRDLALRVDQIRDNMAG
Chain of STK16 (human) (O75716 whole entry, looked up): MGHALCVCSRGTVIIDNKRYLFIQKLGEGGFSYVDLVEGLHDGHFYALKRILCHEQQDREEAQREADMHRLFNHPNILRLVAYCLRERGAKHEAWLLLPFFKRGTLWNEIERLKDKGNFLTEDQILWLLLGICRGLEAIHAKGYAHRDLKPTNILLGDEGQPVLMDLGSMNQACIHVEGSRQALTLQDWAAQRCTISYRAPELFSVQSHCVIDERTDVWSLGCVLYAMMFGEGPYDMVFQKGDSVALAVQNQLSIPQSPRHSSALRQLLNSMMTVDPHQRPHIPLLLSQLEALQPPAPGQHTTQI

O=C1Cc2c([nH]c3ccc([N+](=O)[O-])cc23)-c2ccccc2N1
residual activity [1]: 8.37% | residual activity [2]: 88.2% | residual activity [3]: 96.6% | residual activity [4]: 81.2% | residual activity [5]: 94.2% | residual activity [6]: 74.5% | residual activity [7]: 99.5% | residual activity [8]: 85.9% | residual activity [9]: 90% | residual activity [10]: 112% | residual activity [11]: 68.5% | residual activity [12]: 64.4% | residual activity [13]: 57.7% | residual activity [14]: 67.5% | residual activity [15]: 96.2% | residual activity [16]: 96.2% | residual activity [17]: 96% | residual activity [18]: 99.6% | residual activity [19]: 104% | residual activity [20]: 79.5% | residual activity [21]: 98.2% | residual activity [22]: 42.3% | residual activity [23]: 98.9% | residual activity [24]: 103% | residual activity [25]: 99% | residual activity [26]: 99% | residual activity [27]: 87.4% | residual activity [28]: 78% | residual activity [29]: 167% | residual activity [30]: 93.1% | residual activity [31]: 91.6% | residual activity [32]: 67.7% | residual activity [33]: 71.7%

Nc1nc(Nc2ccc(S(N)(=O)=O)cc2)nn1C(=O)c1c(F)cccc1F
residual activity [1]: 2.21% | residual activity [2]: 89.7% | residual activity [3]: 91.2% | residual activity [4]: 87.9% | residual activity [5]: 90.1% | residual activity [34]: 94.5% | residual activity [6]: 85.6% | residual activity [7]: 55% | residual activity [10]: 84.1% | residual activity [11]: 83.1% | residual activity [12]: 97.5% | residual activity [14]: 77.4% | residual activity [15]: 19.1% | residual activity [16]: 93.1% | residual activity [17]: 101% | residual activity [18]: 85.9% | residual activity [19]: 109% | residual activity [20]: 61.5% | residual activity [21]: 90.7% | residual activity [22]: 50.6% | residual activity [35]: 97% | residual activity [23]: 104% | residual activity [24]: 19.2% | residual activity [25]: 65.9% | residual activity [26]: 94.4% | residual activity [27]: 89.1% | residual activity [28]: 11.3% | residual activity [29]: 151% | residual activity [30]: 48.5% | residual activity [31]: 93.2% | residual activity [32]: 67.6% | residual activity [33]: 87.2%

CCN1/C(=C/C(C)=O)Sc2ccc(OC)cc21
residual activity [1]: 89.7% | residual activity [2]: 100% | residual activity [3]: 100% | residual activity [4]: 99.4% | residual activity [5]: 105% | residual activity [34]: 54.2% | residual activity [6]: 99.7% | residual activity [7]: 95.3% | residual activity [8]: 87.9% | residual activity [10]: 90.6% | residual activity [11]: 28.4% | residual activity [12]: 89.7% | residual activity [13]: 92.9% | residual activity [14]: 99.9% | residual activity [15]: 86.8% | residual activity [16]: 128% | residual activity [17]: 101% | residual activity [18]: 102% | residual activity [19]: 98.5% | residual activity [20]: 95.5% | residual activity [21]: 88.4% | residual activity [22]: 91.8% | residual activity [35]: 99.1% | residual activity [23]: 89.2% | residual activity [24]: 97.1% | residual activity [25]: 104% | residual activity [26]: 103% | residual activity [27]: 107% | residual activity [28]: 101% | residual activity [29]: 123% | residual activity [30]: 87.4% | residual activity [31]: 101% | residual activity [32]: 100% | residual activity [33]: 94.6%

Nc1nc(Nc2ccc(S(N)(=O)=O)cc2)nn1C(=S)Nc1c(F)cccc1F
residual activity [1]: 1.56% | residual activity [2]: 9.7% | residual activity [3]: 78.2% | residual activity [4]: 23.6% | residual activity [5]: 16.7% | residual activity [34]: 83.7% | residual activity [6]: 19.1% | residual activity [7]: 87.2% | residual activity [8]: 12.9% | residual activity [9]: 20.8% | residual activity [10]: 19.4% | residual activity [11]: 8.02% | residual activity [12]: 81.9% | residual activity [13]: 4.96% | residual activity [14]: 12.5% | residual activity [15]: 4.58% | residual activity [16]: 129% | residual activity [17]: 95.9% | residual activity [18]: 78.8% | residual activity [19]: 98.5% | residual activity [20]: 5.4% | residual activity [21]: 11.4% | residual activity [22]: 10.5% | residual activity [23]: 133% | residual activity [24]: 3.16% | residual activity [25]: 96.6% | residual activity [26]: 127% | residual activity [27]: 45.6% | residual activity [28]: -0.498% | residual activity [29]: 19.6% | residual activity [30]: 42.5% | residual activity [31]: 78.4% | residual activity [32]: 0.29% | residual activity [33]: 32.7%

O=C1Nc2cc(Br)ccc2/C1=C1/Nc2ccccc2/C1=N\O
residual activity [1]: 7.66% | residual activity [2]: 82.2% | residual activity [3]: 64.8% | residual activity [4]: 39% | residual activity [5]: 88.5% | residual activity [34]: 85.4% | residual activity [6]: 85.6% | residual activity [7]: 98.2% | residual activity [8]: 39.1% | residual activity [9]: 78.3% | residual activity [10]: 72.3% | residual activity [11]: 84.5% | residual activity [12]: 63.1% | residual activity [14]: 79.3% | residual activity [15]: 56.1% | residual activity [16]: 99.8% | residual activity [17]: 96% | residual activity [18]: 98.7% | residual activity [19]: 97.6% | residual activity [20]: 70.1% | residual activity [21]: 75.1% | residual activity [22]: 15.8% | residual activity [35]: 89% | residual activity [23]: 99.6% | residual activity [24]: 93.8% | residual activity [25]: 96.7% | residual activity [26]: 101% | residual activity [27]: 35.2% | residual activity [28]: 90.3% | residual activity [29]: 90.1% | residual activity [30]: 64% | residual activity [31]: 124% | residual activity [32]: 67% | residual activity [33]: 43.5%

CC(C)(C)c1nc2c3ccc(F)cc3c3c(=O)[nH]ccc3c2[nH]1
residual activity [1]: 86.2% | residual activity [2]: 28.3% | residual activity [3]: 78.6% | residual activity [5]: 20% | residual activity [34]: 89.1% | residual activity [6]: 67.1% | residual activity [7]: 117% | residual activity [8]: 11.2% | residual activity [9]: 105% | residual activity [10]: 94.9% | residual activity [11]: 81.7% | residual activity [12]: 91.5% | residual activity [13]: 98.4% | residual activity [14]: 46.6% | residual activity [15]: 91.4% | residual activity [16]: 122% | residual activity [17]: 95.3% | residual activity [18]: 73.7% | residual activity [19]: 105% | residual activity [20]: 69.4% | residual activity [21]: 92.3% | residual activity [22]: 76.1% | residual activity [35]: 94.8% | residual activity [23]: 102% | residual activity [24]: 1.37% | residual activity [25]: 60.5% | residual activity [26]: 128% | residual activity [28]: 33.9% | residual activity [29]: 96.3% | residual activity [30]: 90.1% | residual activity [31]: 105% | residual activity [32]: 55.9% | residual activity [33]: 5.23%
